Assay results reported in BindingDB's records for doi:10.1021/acs.jmedchem.9b01967 (The University of Tokyo, 2020).

Assay: Inhibition of ATX (unknown origin)-mediated cell migration in human MDA-MB-231 cells assessed as reduction in cell motility after 3 hrs by Diff-Quick staining based microplate reader analysis

## CCCCCCn1c(C)cc(=O)n2cc(-c3ccc(Cl)cc3)nc12
  IC50: 30 nM
